Source: article PMC9732821, “Neurotrophic Activity and Its Modulation by Zinc Ion of a Dimeric Peptide Mimicking the Brain-Derived Neurotrophic Factor N-Terminal Region” (ACS Chemical Neuroscience, 2022)

Experiments:
undifferentiated cells = conditions: cited from earlier work
From the text: Previous functional studies agree in identifying the N-terminal region as a pivotal NT domain for the binding selectivity and activation of Trks.[25]−[27] However, most of these information were obtained from the NGF-TrkA system.[28],[29] On the other hand, the BDNF N-terminal region has been less investigated. […] Mo ...

membrane-bound BDNF = experiment: membrane-bound BDNF, non-permeabilizing immunofluorescence in differentiated SH-SY5Y cells; assay type: cell-based, human; conditions: 1 h
From the text: The possibility of mimicking the function of the full-length BDNF protein by using a linear peptide fragment encompassing the first 12 amino acids of the mature NT N-terminal was already postulated.[31] Here, we named this sequence as m-bdnf (Figure 1A) and performed a systematic comparison between the performance of the full-length human BDNF produced recombinantly in Escherichia coli([32]) and (i) m-bdnf, (ii) a dimeric peptide displaying two copies of the m-bdnf sequence covalently bound by a disulfide bridge (d-bdnf), and (iii) a monomeric peptide displaying the scrambled sequence of m-bdnf (s-bdnf). We first investigated the ability of these peptides to activate the TrkB receptor. […] Specifically, an EC50 concentration of BDNF (1 nM) or of d-bdnf (10 μM) was used in combination with the increasing concentration of d-bdnf and BDNF, respectively, and the increase of ERK phosphorylation was assessed. […] Of note, we also performed a non-permeabilizing immunofluorescence analysis to quantify the membrane-bound BDNF in differentiated SH-SY5Y cells in the absence or presence of BDNF and d-bdnf (Figure S1C,D). […] The same increment was not observed upon treatment with the d-bdnf peptide, while instead we measured a slight (∼18%) decrease of the signal possibly due to the ability of the peptide to displace endogenous BDNF at the tested dose (10 μM). […]

ERK = ERK phosphorylation in HEK 293 cells, which do not express TrkB; assay type: cell-based, human; conditions: increasing concentrations, 10 min, unstimulated control 100%
Experimental: Figure S1. Evaluation of d-bdnf mechanism of action. A) ERK phosphorylation levels detected in HEK293T cells, after stimulation (10 min) with increasing concentrations of BDNF (white columns) or d-bdnf (grey columns) normalized to the unstimulated control (CTRL, black column) set to 100%.
Dunnett’s multiple comparison test. B) ERK phosphorylation levels detected in differentiated SH-SY5Y cells, after stimulation (10 min) with a combination of a single concentration of BDNF (1 nM referred to monomeric form) with increasing concentrations (10 nM-100 µM) of d-bdnf (left); B) a combination of a single concentration of d-bdnf (10 µM) with increasing concentrations (0.074 nM – 10 nM) of BDNF (right). […] C) Representative confocal fluorescence images of SH-SY5Y cells differentiated with retinoic acid (RA) and treated acutely with BDNF, d-bdnf or a combination of the two. […] Scale bar: 50 µm.D) Scatter dot plot of the mean ± SEM fluorescence intensity of the analyzed fields (nfields) for the different samples (NT: nfields=9 and total ncells= 285; BDNF: nfields=10 and total ncells= 297; d-bdnf: nfields=10 and total ncells= 255 cells; BDNF+d-bdnf: nfields=10 and total ncells= 253 cells; **p<0.01 according to […]
HSDPARRGELSV-NH2 (m-bdnf): Rt = 25.2 min. ESI-MS: calculated for C54H91N21O18: 1322.4 […]
SRAGPHLRDVSE-NH2 (s-bdnf): Rt = 27.4 min. ESI-MS: calculated for C54H91N21O18: 1322.4 […]

Molecule | proliferative capacity (undifferentiated cells) | decrease of membrane-bound BDNF fluorescent signal (membrane-bound BDNF; d-bdnf 10 μM) [%] | ERK phosphorylation in HEK 293 cells (ERK) | increase of membrane-bound BDNF fluorescent signal (membrane-bound BDNF; BDNF 150 ng/mL) [%]
HSDPARRGELSV-NH2 [m-bdnf, linear peptide fragment encompassing the first 12 amino acids of the mature NT N-terminal] | displays proliferative capacity in undifferentiated cells |  |  | 
HSDPARRGELSVC-C-VSLEGRRAPDSH (disulfide) [d-bdnf] |  | ~18 | not significantly different | 
brain-derived neurotrophic factor (protein, UniProt P23560 1-247, looked up, full-length, full-length human BDNF produced recombinantly in Escherichia coli) MTILFLTMVISYFGCMKAAPMKEANIRGQGGLAYPGVRTHGTLESVNGPKAGSRGLTSLADTFEHVIEELLDEDQKVRPNEENNKDADLYTSRVMLSSQVPLEPPLLFLLEEYKNYLDAANMSMRVRRHSDPARRGELSVCDSISEWVTAADKKTAVDMSGGTVTVLEKVPVSKGQLKQYFYETKCNPMGYTKEGCRGIDKRHWNSQCRTTQSYVRALTMDSKKRIGWRFIRIDTSCVCTLTIKRGR |  |  | not significantly different | ~40
